Data taken from the supplement of paper PMC10627819.

What was measured:
[1] = tested on: B. subtilis 168; experiment: Bliss interaction score (quartile over a dose matrix) (fitness difference); higher = more antagonism (negative = synergy)
Summary of the method: (§1)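 Fitness here means normalised growth, inferred for single drugs from the combination data. Growth was OD595 at entry into stationary phase, divided by the plate's robust no-drug mean and capped at 1. The Bliss score is observed minus expected fitness, with the expectation being the product, and its quartiles span technical, biological and donor/recipient replicates.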

[2] = tested on: S. pneumoniae D39V; experiment: as above
Summary of the method: as §1

[3] = tested on: S. aureus DSM 20231; experiment: as above
Summary of the method: as §1

[4] = tested on: S. aureus Newman; experiment: as above
Summary of the method: as §1

[5] = tested on: S. pneumoniae D39V; experiment: fitness (endpoint OD595 vs no drug) (fraction); higher = more growth
Summary of the method: (§2)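 Background-subtracted growth curves were the basis for fitness, taken as the optical density at entry into stationary phase over the robust mean of no-drug control wells. A cap of 1 was applied. The curves came from OD595 readings every 30 min for 14 h at 37 °C, in 384-well plates seeded at OD595 0.01 with 30 µl, or 55 µl for S. pneumoniae.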

[6] = tested on: B. subtilis 168; experiment: as above
Summary of the method: as §2

[7] = first compound 25 µg/mL, partner 0.125 µg/mL, one replicate
[8] = first compound 50 µg/mL, partner 0.125 µg/mL, one replicate
[9] = first compound 100 µg/mL, partner 0.125 µg/mL, one replicate
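For Bliss interaction score (quartile over a dose matrix) in this document: first quartile when negative (synergy) and third quartile when positive (antagonism).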

With C[C@H]1COc2c(N3CCN(C)CC3)c(F)cc3c(=O)c(C(=O)O)cn1c23 [Levofloxacin] + Cn1nnc(-c2ccc(-c3ccc(N4C[C@H](CO)OC4=O)cc3F)cn2)n1 [Tedizolid] the Bliss interaction score [1] was 0.0224, the Bliss interaction score [2] was -0.126 and the Bliss interaction score [3] was 0.0821. The Bliss interaction score [4] was 0.057, the fitness ([5]; first compound 0.1725 µg/mL, partner 0.125 µg/mL) was 0.758 and the fitness ([5]; first compound 0.1725 µg/mL, partner 0.25 µg/mL) was 0.826. It also gave a fitness ([5]; first compound 0.1725 µg/mL, partner 0.5 µg/mL) of 0.243, a fitness ([5]; first compound 0.2 µg/mL, partner 0.03125 µg/mL) of 0.921 and a fitness ([5]; first compound 0.2 µg/mL, partner 0.0625 µg/mL) of 0.94. For the same compound, the fitness ([5]; first compound 0.2 µg/mL, partner 0.125 µg/mL) was 0.768, the fitness ([5]; first compound 0.345 µg/mL, partner 0.125 µg/mL) was 0.703 and the fitness ([5]; first compound 0.345 µg/mL, partner 0.25 µg/mL) was 0.757. For the same compound, the fitness ([5]; first compound 0.345 µg/mL, partner 0.5 µg/mL) was 0.203, the fitness ([5]; first compound 0.4 µg/mL, partner 0.03125 µg/mL) was 0.855 and the fitness ([5]; first compound 0.4 µg/mL, partner 0.0625 µg/mL) was 0.878. It also gave a fitness ([5]; first compound 0.4 µg/mL, partner 0.125 µg/mL) of 0.731, a fitness ([5]; first compound 0.69 µg/mL, partner 0.125 µg/mL) of 0.433 and a fitness ([5]; first compound 0.69 µg/mL, partner 0.25 µg/mL) of 0.401. It also gave a fitness ([5]; first compound 0.69 µg/mL, partner 0.5 µg/mL) of 0.189, a fitness ([5]; first compound 0.8 µg/mL, partner 0.03125 µg/mL) of 0.629 and a fitness ([5]; first compound 0.8 µg/mL, partner 0.0625 µg/mL) of 0.731. For the same compound, the fitness ([5]; first compound 0.8 µg/mL, partner 0.125 µg/mL) was 0.608.
C[C@H]1COc2c(N3CCN(C)CC3)c(F)cc3c(=O)c(C(=O)O)cn1c23 [Levofloxacin] + CO[C@H]1/C=C/O[C@@]2(C)Oc3c(C)c(O)c4c(O)c(c(/C=N/N5CCN(C)CC5)c(O)c4c3C2=O)NC(=O)/C(C)=C\C=C\[C@H](C)[C@H](O)[C@@H](C)[C@@H](O)[C@@H](C)[C@H](OC(C)=O)[C@@H]1C [Rifampicin] was tested, and the Bliss interaction score [1] was 0.0398, the Bliss interaction score [2] was 0.11 and the Bliss interaction score [3] was 0.0251. For the same compound, the Bliss interaction score [4] was 0.0412, the fitness ([5]; first compound 0.1725 µg/mL, partner 0.05 µg/mL) was 0.902 and the fitness ([5]; first compound 0.1725 µg/mL, partner 0.2 µg/mL) was 0.356. For the same compound, the fitness ([5]; first compound 0.2 µg/mL, partner 0.025 µg/mL, one replicate) was 0.843, the fitness ([5]; first compound 0.2 µg/mL, partner 0.2 µg/mL, one replicate) was 0 and the fitness ([5]; first compound 0.345 µg/mL, partner 0.05 µg/mL) was 0.848. It also gave a fitness ([5]; first compound 0.4 µg/mL, partner 0.025 µg/mL, one replicate) of 0.805, a fitness ([5]; first compound 0.4 µg/mL, partner 0.05 µg/mL) of 0.724 and a fitness ([5]; first compound 0.4 µg/mL, partner 0.2 µg/mL, one replicate) of 0. It also gave a fitness ([5]; first compound 0.69 µg/mL, partner 0.05 µg/mL) of 0.611, a fitness ([5]; first compound 0.69 µg/mL, partner 0.2 µg/mL) of 0.288 and a fitness ([5]; first compound 0.8 µg/mL, partner 0.025 µg/mL, one replicate) of 0.725. For the same compound, the fitness ([5]; first compound 0.8 µg/mL, partner 0.05 µg/mL) was 0.665 and the fitness ([5]; first compound 0.8 µg/mL, partner 0.2 µg/mL, one replicate) was 0.
With CN(C)C(=O)C(CCN1CCC(O)(c2ccc(Cl)cc2)CC1)(c1ccccc1)c1ccccc1 [Loperamide] + CO[C@@H]1[C@@H](OC(N)=O)[C@@H](O)[C@H](Oc2ccc3c(O)c(NC(=O)c4ccc(O)c(CC=C(C)C)c4)c(=O)oc3c2C)OC1(C)C [Novobiocin] the Bliss interaction score [1] was 0.205, the Bliss interaction score [2] was -0.113 and the Bliss interaction score [3] was -0.0535. For the same compound, the Bliss interaction score [4] was -0.0759, the fitness ([6]; first compound 25 µg/mL, partner 0.0125 µg/mL) was 0.889 and the fitness ([6]; first compound 25 µg/mL, partner 0.025 µg/mL) was 0.85. For the same compound, the fitness ([6]; first compound 25 µg/mL, partner 0.05 µg/mL) was 0.86, the fitness [6, 7] was 0.703 and the fitness ([6]; first compound 25 µg/mL, partner 0.25 µg/mL, one replicate) was 0.274. The fitness ([6]; first compound 25 µg/mL, partner 0.5 µg/mL, one replicate) was 0.186, the fitness [6, 8] was 0.028 and the fitness ([6]; first compound 50 µg/mL, partner 0.25 µg/mL, one replicate) was 0.0063. The fitness ([6]; first compound 50 µg/mL, partner 0.5 µg/mL, one replicate) was 0.0466, the fitness [6, 9] was 0.0375 and the fitness ([6]; first compound 100 µg/mL, partner 0.25 µg/mL, one replicate) was 0.0267. The fitness ([6]; first compound 100 µg/mL, partner 0.5 µg/mL, one replicate) was 0.0548.
Work on CO/N=C(\C(=O)N[C@@H]1C(=O)N2C(C(=O)[O-])=C(C[N+]3(C)CCCC3)CS[C@H]12)c1csc(N)n1 [Cefepime] + C[C@@H](O)[C@H]1C(=O)N2C(C(=O)O)=C(SCCNC=N)C[C@H]12 [Imipenem] yielded a Bliss interaction score [1] of -0.106, a Bliss interaction score [2] of 0.068 and a Bliss interaction score [3] of -0.0424. For the same compound, the Bliss interaction score [4] was 0.155, the fitness ([5]; first compound 0.007 µg/mL, partner 0.005 µg/mL) was 0.987 and the fitness ([5]; first compound 0.007 µg/mL, partner 0.01 µg/mL) was 0.984. For the same compound, the fitness ([5]; first compound 0.007 µg/mL, partner 0.02 µg/mL) was 0.986, the fitness ([5]; first compound 0.0078 µg/mL, partner 0.0065 µg/mL) was 1 and the fitness ([5]; first compound 0.0078 µg/mL, partner 0.013 µg/mL) was at least 1. The fitness ([5]; first compound 0.0078 µg/mL, partner 0.026 µg/mL) was 0.995, the fitness ([5]; first compound 0.014 µg/mL, partner 0.005 µg/mL) was 0.979 and the fitness ([5]; first compound 0.014 µg/mL, partner 0.01 µg/mL) was at least 1. The fitness ([5]; first compound 0.014 µg/mL, partner 0.02 µg/mL) was 0.991, the fitness ([5]; first compound 0.0155 µg/mL, partner 0.0065 µg/mL) was 0.971 and the fitness ([5]; first compound 0.0155 µg/mL, partner 0.013 µg/mL) was 0.98. It also gave a fitness ([5]; first compound 0.0155 µg/mL, partner 0.026 µg/mL) of 0.915, a fitness ([5]; first compound 0.028 µg/mL, partner 0.005 µg/mL) of 0.92 and a fitness ([5]; first compound 0.028 µg/mL, partner 0.01 µg/mL) of 0.902. It also gave a fitness ([5]; first compound 0.028 µg/mL, partner 0.02 µg/mL) of 0.881, a fitness ([5]; first compound 0.031 µg/mL, partner 0.0065 µg/mL) of 0.39 and a fitness ([5]; first compound 0.031 µg/mL, partner 0.013 µg/mL) of 0.495. It also gave a fitness ([5]; first compound 0.031 µg/mL, partner 0.026 µg/mL) of 0.325.
Work on CO/N=C(\C(=O)N[C@@H]1C(=O)N2C(C(=O)[O-])=C(C[N+]3(C)CCCC3)CS[C@H]12)c1csc(N)n1 [Cefepime] + CN(C)C(=O)C(CCN1CCC(O)(c2ccc(Cl)cc2)CC1)(c1ccccc1)c1ccccc1 [Loperamide] yielded a Bliss interaction score [1] of -0.171, a Bliss interaction score [2] of -0.0863 and a Bliss interaction score [3] of 0.156. For the same compound, the Bliss interaction score [4] was 0.0533, the fitness ([5]; first compound 0.007 µg/mL, partner 20 µg/mL) was at least 1 and the fitness ([5]; first compound 0.007 µg/mL, partner 40 µg/mL) was at least 1. For the same compound, the fitness ([5]; first compound 0.007 µg/mL, partner 80 µg/mL) was 0.913, the fitness ([5]; first compound 0.0078 µg/mL, partner 17.14 µg/mL) was at least 1 and the fitness ([5]; first compound 0.0078 µg/mL, partner 34.28 µg/mL) was 0.969. The fitness ([5]; first compound 0.0078 µg/mL, partner 68.57 µg/mL, one replicate) was at least 1, the fitness ([5]; first compound 0.014 µg/mL, partner 20 µg/mL) was at least 1 and the fitness ([5]; first compound 0.014 µg/mL, partner 40 µg/mL) was at least 1. It also gave a fitness ([5]; first compound 0.0155 µg/mL, partner 17.14 µg/mL) of 0.952, a fitness ([5]; first compound 0.0155 µg/mL, partner 34.28 µg/mL) of 0.854 and a fitness ([5]; first compound 0.0155 µg/mL, partner 68.57 µg/mL, one replicate) of at least 1. For the same compound, the fitness ([5]; first compound 0.028 µg/mL, partner 20 µg/mL) was 0.911, the fitness ([5]; first compound 0.028 µg/mL, partner 40 µg/mL) was 0.841 and the fitness ([5]; first compound 0.031 µg/mL, partner 68.57 µg/mL, one replicate) was 0.48.
In the case of CN(C)C(=O)C(CCN1CCC(O)(c2ccc(Cl)cc2)CC1)(c1ccccc1)c1ccccc1 [Loperamide] + COc1cc(Cc2cnc(N)nc2N)cc(OC)c1OC [Trimethoprim], the Bliss interaction score [1] is reported as -0.102, the Bliss interaction score [2] is reported as 0.274 and the Bliss interaction score [3] is reported as -0.0416. It also gave a Bliss interaction score [4] of 0.0605, a fitness ([6]; first compound 25 µg/mL, partner 0.1 µg/mL, one replicate) of 0.0203 and a fitness [6, 7] of 0.525. It also gave a fitness ([6]; first compound 25 µg/mL, partner 0.2 µg/mL, one replicate) of 0.0477, a fitness ([6]; first compound 25 µg/mL, partner 0.4 µg/mL, one replicate) of 0.0288 and a fitness ([6]; first compound 25 µg/mL, partner 1 µg/mL, one replicate) of 0.0225. For the same compound, the fitness ([6]; first compound 25 µg/mL, partner 2 µg/mL, one replicate) was 0.0222, the fitness ([6]; first compound 50 µg/mL, partner 0.1 µg/mL, one replicate) was 0.0097 and the fitness [6, 8] was 0.0833. It also gave a fitness ([6]; first compound 50 µg/mL, partner 0.2 µg/mL, one replicate) of 0.0381, a fitness ([6]; first compound 50 µg/mL, partner 0.25 µg/mL) of 0.201 and a fitness ([6]; first compound 50 µg/mL, partner 0.4 µg/mL, one replicate) of 0.0129. It also gave a fitness ([6]; first compound 50 µg/mL, partner 0.5 µg/mL) of 0.0275, a fitness ([6]; first compound 50 µg/mL, partner 1 µg/mL, one replicate) of 0.0319 and a fitness ([6]; first compound 50 µg/mL, partner 2 µg/mL, one replicate) of 0.0248. For the same compound, the fitness ([6]; first compound 100 µg/mL, partner 0.1 µg/mL, one replicate) was 0.0141, the fitness [6, 9] was 0.107 and the fitness ([6]; first compound 100 µg/mL, partner 0.2 µg/mL, one replicate) was 0.0463. For the same compound, the fitness ([6]; first compound 100 µg/mL, partner 0.25 µg/mL) was 0.0658, the fitness ([6]; first compound 100 µg/mL, partner 0.4 µg/mL, one replicate) was 0.0259 and the fitness ([6]; first compound 100 µg/mL, partner 0.5 µg/mL) was 0.0239. The fitness ([6]; first compound 100 µg/mL, partner 1 µg/mL, one replicate) was 0.031 and the fitness ([6]; first compound 100 µg/mL, partner 2 µg/mL, one replicate) was 0.0361.
